One block for each compound: values may come before it. Peptide text beside a SMILES is read from it.
Legend:
S. aureus ATCC 49230 = assay: microbe, parasite or virus in culture; settings: for Minimum Inhibitory Concentration (MIC): ATCC 49230, 18 h; for Minimum Bactericidal Concentration (MBC): ATCC 49230, 24 h
From the text: (§1) A total of 18 bacterial strains relevant to orthopedic infections were used for microbiological tests, including 8 ATCC (American Type Culture Collection, ATCC, Manassas, VA, USA) and 10 clinical isolates (CI) from the Laboratory of Clinical Chemistry and Microbiology, IRCCS Ospedale Galeazzi–Sant’Ambrogio of Milan (Italy) strain collection. The ATCC strains were used for the first screening (MIC/MBC) of all the AMPs produced, while the clinical isolates were used for further MIC/MBC assays on selected AMPs. Among CI, S. epidermidis GOI1153754-03-14 has been already characterized and used in previous studies. All the strains were stocked at −80°C and working stocks were stored at −20 °C. At the occurrence, the bacteria were resuscitated in Brain Hearth Infusion (BHI, Millipore, Milan, Italy) broth at 37 °C for 18 h from the working stocks.
(§2) To determine the minimum inhibitory concentration (MIC) and the minimum bactericidal concentration (MBC), ISO20776-1 and Clinical and Laboratory Standards Institute guidelines were followed. A commercial synthetic LL-37 (Aurogene, Rome, Italy) was used as the control in the MIC and MBC assays. A stock solution of each AMP was prepared at 600 µg/mL to achieve a final concentration of 300 µg/mL. […] The MIC was determined according to the aforementioned standard guidelines. The MBC was determined by plating 2 µL of culture from each well of the MIC plates on a Tryptic Soy Agar (TSA, Millipore, Milan, Italy) plate and incubated for 24 h at 37 °C. The concentration at which there was no growth was recorded as MBC. Each experiment was carried out in triplicate. Representative MIC and MBC values for vancomycin and gentamicin were assessed to offer a benchmark comparison for the AMPs. Quality control was conducted with Staphylococcus aureus ATCC 29,213 and vancomycin according to EUCAST guidelines.

S. aureus ATCC 25923 = assay: microbe, parasite or virus in culture; settings: for Minimum Inhibitory Concentration (MIC): ATCC 25923, 18 h; for Minimum Bactericidal Concentration (MBC): ATCC 25923, 24 h
From the text: as §1, §2

E. coli ATCC 25922 = assay: microbe, parasite or virus in culture; settings: for Minimum Inhibitory Concentration (MIC): ATCC 25922, 18 h; for Minimum Bactericidal Concentration (MBC): ATCC 25922, 24 h
From the text: as §1, §2

[1] = test system: S. epidermidis ATCC 35984; assay: microbe, parasite or virus in culture; settings: for Minimum Inhibitory Concentration (MIC): ATCC 35984, 18 h; for Minimum Bactericidal Concentration (MBC): ATCC 35984, 24 h
From the text: as §1, §2

[2] = test system: S. epidermidis ATCC 14990; assay: microbe, parasite or virus in culture; settings: for Minimum Inhibitory Concentration (MIC): ATCC 14990, 18 h; for Minimum Bactericidal Concentration (MBC): ATCC 14990, 24 h
From the text: as §1, §2

P. aeruginosa ATCC 27853 = assay: microbe, parasite or virus in culture; settings: for Minimum Inhibitory Concentration (MIC): ATCC 27853, 18 h; for Minimum Bactericidal Concentration (MBC): ATCC 27853, 24 h
From the text: as §1, §2

S. aureus ATCC 43300 = assay: microbe, parasite or virus in culture; settings: for Minimum Inhibitory Concentration (MIC): ATCC 43300, 18 h; for Minimum Bactericidal Concentration (MBC): ATCC 43300, 24 h
From the text: as §1, §2

ATCC strains = settings: 18 h
From the text: as §1, §2

[3] = test system: S. epidermidis GOI1153754-03-14 (CI); assay: microbe, parasite or virus in culture; settings: GOI1153754-03-14 (CI, 18 h)
From the text: as §1, §2

red blood cells (RBC) = assay: Hemolytic activity assessment; format: cell-based; settings: at 18.75 µg/mL; human RBC suspension in PBS, 1 h 37 °C, absorbance 414 nm; 0.1% Triton-X100 = 100%
Protocol: The pellet containing erythrocytes was washed 3 times in PBS centrifuging at 700× g for 8 min at RT. Finally, 40 µL of pellet containing red blood cells (RBC) was diluted in 8 mL of PBS, obtaining a 0.5% v/v RBC suspension.
The 96-well V plate was incubated at 37 °C for 1 h, then centrifuged at 1000× g for 10 min, and the supernatant (60 µL) was transferred to a 96-well flat bottom microplate for the absorption analysis on a microplate reader at 414 nm. The positive control (PC, 100% hemolysis) consisted of 0.1% Triton-X100 in PBS (pH 7.4), while PBS alone served as the negative control (NC, 0% hemolysis). Each hemolysis activity assessment test was carried out in two replicates and repeated three times.
NCs and PCs were averaged, then results were normalized to the average of PC and NC according to the following formula: % Hemolysis = (Abs treated − Abs NC/Abs PC − Abs NC) × 100. The hemolytic activity was also tested on TFA to exclude any toxicity caused by the buffer.

E. coli Eco53 (CI) = settings: Eco53 (CI, 18 h)
From the text: as §1, §2

E. coli Eco75 (CI) = settings: Eco75 (CI, 18 h)
From the text: as §1, §2

P. aeruginosa Pae82 (CI) = settings: Pae82 (CI, 18 h)
From the text: as §1, §2

P. aeruginosa Pae2 (CI) = settings: Pae2 (CI, 18 h)
From the text: as §1, §2

S. aureus Sau89 (CI) = settings: Sau89 (CI, 18 h)
From the text: as §1, §2

P. aeruginosa Pae61 (CI) = settings: Pae61 (CI, 18 h)
From the text: as §1, §2

E. coli Eco61 (CI) = settings: Eco61 (CI, 18 h)
From the text: as §1, §2

Staphylococci = settings: 18 h
From the text: as §1, §2

S. aureus Sau39 (CI) = settings: Sau39 (CI, 18 h)
From the text: as §1, §2

S. aureus Sau221 (CI) = settings: Sau221 (CI, 18 h)
From the text: as §1, §2

- Minimum Inhibitory Concentration (MIC) (S. aureus ATCC 49230): >300.00 µg/mL
- Minimum Inhibitory Concentration (MIC) (S. aureus ATCC 25923): 300.00 µg/mL
- Minimum Inhibitory Concentration (MIC) (E. coli ATCC 25922): 75.00 µg/mL
- Minimum Inhibitory Concentration (MIC) [1]: 150.00 µg/mL
- Minimum Inhibitory Concentration (MIC) [2]: 150.00 µg/mL
- Minimum Inhibitory Concentration (MIC) (P. aeruginosa ATCC 27853): 300.00 µg/mL
- Minimum Inhibitory Concentration (MIC) (S. aureus ATCC 43300): 300.00 µg/mL
SMILES: CC[C@H](C)[C@H](NC(=O)[C@H](CCCNC(=N)N)NC(=O)[C@H](CCC(N)=O)NC(=O)[C@@H](NC(=O)[C@@H](NC(=O)[C@H](CCCNC(=N)N)NC(=O)[C@H](CCCCN)NC(=O)[C@@H](N)Cc1ccccc1)[C@@H](C)CC)C(C)C)C(=O)N[C@@H](CCCCN)C(=O)N[C@@H](CC(=O)O)C(=O)N[C@@H](Cc1ccccc1)C(=O)N[C@@H](CC(C)C)C(=O)N[C@@H](CCCNC(=N)N)C(N)=O [FK-13] (H-FKRIVQRIKDFLR-NH2)
- Minimum Bactericidal Concentration (MBC) (S. aureus ATCC 49230): >300.00 µg/mL
- Minimum Bactericidal Concentration (MBC) (S. aureus ATCC 25923): >300.00 µg/mL
- Minimum Bactericidal Concentration (MBC) (E. coli ATCC 25922): 150.00 µg/mL
- Minimum Bactericidal Concentration (MBC) [1]: 150.00 µg/mL
- Minimum Bactericidal Concentration (MBC) [2]: 150.00 µg/mL
- Minimum Bactericidal Concentration (MBC) (P. aeruginosa ATCC 27853): 300.00 µg/mL
- Minimum Bactericidal Concentration (MBC) (S. aureus ATCC 43300): >300.00 µg/mL
- MBC values over all ATCC strains tested (ATCC strains): greater than 300 µg/mL

- Minimum Inhibitory Concentration (MIC) [3]: 2.34 µg/mL
- Minimum Inhibitory Concentration (MIC) (S. aureus ATCC 49230): 4.69 µg/mL
- Minimum Inhibitory Concentration (MIC) (S. aureus ATCC 25923): 2.34 µg/mL
- Minimum Inhibitory Concentration (MIC) (E. coli ATCC 25922): 9.38 µg/mL
- Minimum Inhibitory Concentration (MIC) [1]: 2.34 µg/mL
- Minimum Inhibitory Concentration (MIC) [2]: 4.69 µg/mL
- Minimum Inhibitory Concentration (MIC) (P. aeruginosa ATCC 27853): 18.75 µg/mL
- Minimum Inhibitory Concentration (MIC) (S. aureus ATCC 43300): 4.69 µg/mL
- Minimum Inhibitory Concentration (MIC) (E. coli Eco53 (CI)): 18.75 µg/mL
- Minimum Inhibitory Concentration (MIC) (E. coli Eco75 (CI)): 18.75 µg/mL
- Minimum Inhibitory Concentration (MIC) (P. aeruginosa Pae82 (CI)): 75.00 µg/mL
- Minimum Inhibitory Concentration (MIC) (P. aeruginosa Pae2 (CI)): 150.00 µg/mL
- Minimum Inhibitory Concentration (MIC) (S. aureus Sau89 (CI)): 4.69 µg/mL
- Minimum Inhibitory Concentration (MIC) (P. aeruginosa Pae61 (CI)): 37.50 µg/mL
- Minimum Inhibitory Concentration (MIC) (E. coli Eco61 (CI)): 9.38 µg/mL
- Minimum Inhibitory Concentration (MIC) (S. aureus Sau39 (CI)): 2.34 µg/mL
- Minimum Inhibitory Concentration (MIC) (S. aureus Sau221 (CI)): 9.38 µg/mL
SMILES: CC[C@H](C)[C@H](NC(=O)[C@H](CCCNC(=N)N)NC(=O)[C@H](CCC(N)=O)NC(=O)[C@@H](NC(=O)[C@@H](NC(=O)[C@H](CCCNC(=N)N)NC(=O)[C@H](CCCCN)NC(=O)[C@H](Cc1ccccc1)NC(=O)CN)[C@@H](C)CC)C(C)C)C(=O)N[C@@H](CCCCN)C(=O)N[C@@H](CC(=O)O)C(=O)N[C@@H](Cc1ccccc1)C(=O)N[C@@H](CC(C)C)C(=O)N[C@@H](CCCNC(=N)N)C(=O)N[C@@H](CC(N)=O)C(=O)N[C@@H](CC(C)C)C(=O)N[C@H](C(N)=O)C(C)C [GF-17] (H-GFKRIVQRIKDFLRNLV-NH2)
- Minimum Bactericidal Concentration (MBC) [3]: 37.50 µg/mL
- Minimum Bactericidal Concentration (MBC) (S. aureus ATCC 49230): 75.00 µg/mL
- Minimum Bactericidal Concentration (MBC) (S. aureus ATCC 25923): 37.50 µg/mL
- Minimum Bactericidal Concentration (MBC) (E. coli ATCC 25922): 300.00 µg/mL
- Minimum Bactericidal Concentration (MBC) [1]: 4.69 µg/mL
- Minimum Bactericidal Concentration (MBC) [2]: 75.00 µg/mL
- Minimum Bactericidal Concentration (MBC) (P. aeruginosa ATCC 27853): 75.00 µg/mL
- Minimum Bactericidal Concentration (MBC) (S. aureus ATCC 43300): 150.00 µg/mL
- Hemolytic activity (red blood cells (RBC)): below 1%
- Minimum Bactericidal Concentration (MBC) (E. coli Eco53 (CI)): 75.00 µg/mL
- Minimum Bactericidal Concentration (MBC) (E. coli Eco75 (CI)): 75.00 µg/mL
- Minimum Bactericidal Concentration (MBC) (P. aeruginosa Pae82 (CI)): 300.00 µg/mL
- Minimum Bactericidal Concentration (MBC) (P. aeruginosa Pae2 (CI)): 150.00 µg/mL
- Minimum Bactericidal Concentration (MBC) (S. aureus Sau89 (CI)): 4.69 µg/mL
- Minimum Bactericidal Concentration (MBC) (P. aeruginosa Pae61 (CI)): 150.00 µg/mL
- Minimum Bactericidal Concentration (MBC) (E. coli Eco61 (CI)): 18.75 µg/mL
- MBC range (bactericidal effect) against Staphylococci (Staphylococci): 4.69 to 150 µg/mL
- Minimum Bactericidal Concentration (MBC) (S. aureus Sau39 (CI)): 9.38 µg/mL
- Minimum Bactericidal Concentration (MBC) (S. aureus Sau221 (CI)): 18.75 µg/mL
